Here are results for 91 molecules from a melting point compilation (Tetko et al.; mined from patent text by program, amines drawn as free bases though some values may be those of a salt).

On to `COc1cc(CCCC2OC(=O)NC2=O)ccc1OCc1csc(/C=C/c2ccccc2)n1` (stereo unspecified), for which the melting point lay within 202 to 203 °C.

`CC1C(=O)Nc2c(Oc3ccccc3Cl)cccc21` (stereo unspecified) had a melting point of 138 to 139 °C.

`CN(C)C(=O)c1cccnc1SCc1ccccc1` registered a melting point of 61 to 63 °C.

`O=C1NCC(c2ccc3[nH]c(-c4ccncc4)cc3c2)=NN1` displayed a melting point of 313 to 316 °C.

As for `Cc1ccc(S(=O)(=O)NC2CCCCNC2=O)cc1` (stereo unspecified), the melting point is 180 °C.

`CC(=O)NCC1CC(c2cc(F)c(F)c(F)c2)=NO1` (stereo unspecified) had a melting point of 136 to 137 °C.

As for `Nc1ncccc1-c1nc2ccc(Cl)nc2n1-c1ccc(CNC(=O)c2cccc(F)c2)cc1`, the melting point is 240 to 243 °C.

`COC(=O)CCC(C)C1CCC2C3CCC4CC(N=[N+]=[N-])CCC4(C)C3CC(=O)C12C` (stereo unspecified): the melting point amounted to 153 °C.

`COC(=O)C1(n2c(=O)[nH]c3ccccc3c2=O)CCCCC1`: the melting point lay in the range of 145 to 147 °C.

With `NS(=O)(=O)c1cccc(-c2cn(-c3nc(-c4ccc(C(F)(F)F)cc4)cc(C(F)(F)F)n3)cn2)c1`, the melting point amounted to 198 °C.

Take `COC(=O)[C@H](Cc1ccc(NC(=O)c2c(Cl)cccc2Cl)cc1)NC(=O)c1c(C)cccc1Cl`: the melting point is 244 to 245 °C.

`COc1cc2c(cc1OC)CC(=O)N(CCCI)C=C2` showed a melting point of 132 to 134 °C.

Turning to `CCc1cccc(NC(=O)C(C)(C)C)n1`, the melting point is 59 to 62 °C.

`CC(C)CSCc1c(-c2ccc(S(C)(=O)=O)cc2)cnn(-c2ccc(F)cc2)c1=O` yielded a melting point of 45 to 60 °C.

With `COc1cccc(O)c1-c1ccc(C[C@H](NC(=O)c2c(Cl)cccc2Cl)C(=O)O)cc1`, the melting point amounted to 224 °C.

With `O=c1c(-c2ccc[nH]2)coc2ccccc12`, the melting point was 134 to 135 °C.

As for `NC(=O)NC1CCC(Cl)CC1` (stereo unspecified), the melting point lay in the range of 177 to 178 °C.

On to `O=S(=O)(Oc1ccc(S(=O)(=O)c2ccc(OS(=O)(=O)c3ccccc3)cc2)cc1)c1ccccc1`, for which the melting point lay within 133 to 134 °C.

For `O=C1Cc2cc(F)ccc2N1`, the melting point was in the range of 131 to 133 °C.

Take `O=C(CCCCCC(c1cc(F)ccc1F)S(=O)(=O)c1ccc(Cl)cc1)N1CCCC1` (stereo unspecified): the melting point came out at 106 °C.

On to `CNC(=O)C(c1ccc(F)cc1)c1ccc(F)cc1`, for which the melting point is 179 to 180 °C.

With `Fc1ccc(-c2ncn(CCCCN3CCOCC3)c2-c2ccncc2)cc1`, the melting point is 103 to 104 °C.

For the molecule `Cc1ccccc1C(=O)Nc1ccc(C(=O)N2CCCC(COS(C)(=O)=O)c3ccccc32)cc1` (stereo unspecified), the melting point is 189 to 190 °C.

In the case of `CCC(CC)CC(C)(NC(CO)c1ccccc1)C(=O)O` (stereo unspecified), the melting point is 149 °C.

For the molecule `Cc1cc(=O)oc2cc(OS(N)(=O)=O)ccc12`, the melting point fell in the range of 161 to 164 °C.

Regarding `Cn1cc(C2=C(c3c4n(c5ccccc35)CCN(C(=O)OC(C)(C)C)C4)C(=O)OC2=O)c2ccccc21`, the melting point fell in the range of 125 to 127 °C.

Regarding `C=C(C)COc1ccc(C(=O)c2ccccc2)cc1`, the melting point fell in the range of 85 to 86.5 °C.

`CSc1ccc(Cl)c(C(=O)Nc2ccc(-n3nc(C(F)(F)F)cc3C3CC3)cc2)c1` showed a melting point of 172 to 177 °C.

With `CCC(O)(c1ccc(OCc2cccc(C)n2)cc1)c1ccccc1C(F)(F)F` (stereo unspecified), the melting point fell in the range of 128 to 129 °C.

`COC(=O)[C@@H](NC(=O)OC(C)(C)C)[C@@H](S)c1ccccc1` yielded a melting point of 76 to 77 °C.

Regarding `Cc1cc(O)cc(O)c1C=O`, the melting point lay in the range of 174 to 177 °C.

Consider `CCOC(=O)c1ccc(OCC2(O)CCN(Cc3ccccc3)CC2)cc1`, for which the melting point was 100 °C.

For the molecule `C#Cc1cc(C)c(Oc2ccc([N+](=O)[O-])c(Nc3ccc(C#N)cc3)n2)c(C)c1`, the melting point lay within 186 to 188 °C.

Turning to `COC(=O)NC(=O)NS(=O)(=O)c1ccc([N+](=O)[O-])cc1`, the melting point fell in the range of 150 to 158 °C.

`CC(C)c1nsc(N)c1C#N` returned a melting point of 130 to 132 °C.

Molecule `CCOc1cccc(-c2cc3n(n2)CCc2ccccc2-3)c1` registered a melting point of 103 to 104 °C.

In turn, `CC(C1=NC(C)(C)CO1)c1ccc(-c2ccc(F)cc2F)c(O)c1` (stereo unspecified) came in with a melting point of 188 to 194 °C.

With `C=CCc1cccc(CC(NC(C)=O)C(=O)OCc2ccccc2)c1` (stereo unspecified), the melting point was 55 to 56.5 °C.

In the case of `COC(=O)CC=CC=CC=CC=CC=Cc1ccsc1`, the melting point lay within 206 to 208 °C.

For `O=C1CCCCC1C(C[N+](=O)[O-])c1ccccc1Cl` (racemic), the melting point fell in the range of 107 to 108 °C.

In the case of `COC(=O)Cn1c(-c2ccccc2Cl)nc2cccnc21`, the melting point fell in the range of 198 to 200 °C.

Turning to `CCCCCC(=O)n1c(N)nc2ccccc21`, the melting point stood at 200 °C.

In turn, `CC(C)(C#N)c1cc(Cn2cncn2)cc(C(N)=O)c1` returned a melting point of 144 to 145 °C.

Turning to `CCc1ccc(-c2nc(COc3ccc(CCCn4ccnc4)cc3)co2)s1`, the melting point fell in the range of 57 to 58 °C.

On to `Cc1cc(NS(=O)(=O)c2cccs2)c2[nH]c(C3=NCCS3)cc2c1`, for which the melting point was 202 to 203 °C.

For `CCOC(=O)/C=C/c1cc(Br)ccc1N(C)Cc1cnn(C)c1`, the melting point was in the range of 67 to 68 °C.

Molecule `Cc1nc(-c2ccccc2)nc(-c2cccc([N+](=O)[O-])c2)c1CN1CCN(C)CC1` had a melting point of 138 to 140 °C.

As to `O=C1C=CC2=CN=C(C3CCCCC3)N3CCC(=C23)N1`, the melting point lay in the range of 265 to 266 °C.

Turning to `Oc1cccc2c(Cl)ncnc12`, the melting point was above 252 °C.

`c1ccc2c(c1)C[C@H]1CSC(=Nc3nccs3)N1C2` displayed a melting point of 158 °C.

In the case of `COC(=O)c1ccc(I)nc1`, the melting point was 134 to 135 °C.

For the molecule `CNC(=O)C(C)Oc1ccc(Oc2ccc(Cl)cc2)cc1` (stereo unspecified), the melting point lay in the range of 117 to 118 °C.

Take `NS(=O)(=O)c1cc2c(s1)SCCNC2=O`: the melting point is above 270 °C.

Molecule `CC(C)Cc1cccc(CCCn2c(=O)c3c(Cl)cc(Cl)cc3n(Cc3ccccc3)c2=O)c1` returned a melting point of 108 to 111 °C.

For the molecule `COc1cc(C(=O)c2ccnn2C)c(Cl)c(Cl)c1OC`, the melting point lay in the range of 99.5 to 101 °C.

The molecule `CC(=Cc1cc(-n2[nH]c3c(c2=O)CCCC3)ccc1Cl)C(=O)O` displayed a melting point of 278 °C.

`Cc1cc(C)nc(-n2nc(C)nc2N)n1` displayed a melting point of 237 °C.

Molecule `COC(=O)CC(C(=O)c1cccc(OCc2ccccc2)c1)c1ccccc1` (racemic) had a melting point of 88 to 89 °C.

In the case of `Cn1cncc1C(O)(c1ccc(F)cc1)c1ccc2nc(Cl)nc(-c3cccc(Cl)c3)c2c1` (stereo unspecified), the melting point was 212 °C.

`CC(C)CCCC(C)Cc1nc2c3cc(Br)sc3c3sc(Br)cc3c2nc1CC(C)CCCC(C)C` (stereo unspecified) registered a melting point of 106 to 108 °C.

Take `CCOC(=O)COc1ccc(-c2c(Cl)c(CN3C(=O)CCC3=O)nc3sc4c(c23)CCS(=O)(=O)C4)cc1`: the melting point was 215 to 216 °C.

As to `O=C(O)Cn1c(=O)sc2cc(-c3ccccc3)c(Cl)cc21`, the melting point was in the range of 262 to 266 °C.

Regarding `CC(=O)c1c(C)[nH]c(-c2ccc(F)cc2)c1N`, the melting point lay in the range of 211 to 212 °C.

As to `COc1ccc(CCCC(=O)O)cc1NC(=O)C[C@H]1O[C@H](c2cccc(OC)c2OC)c2cc(Cl)ccc2N(CC(C)(C)CO)C1=O`, the melting point fell in the range of 119 to 121 °C.

With `CCOc1cc(C(=O)NC2CC(C)(C)NC(C)(C)C2)ccc1-c1nc2cc(Cl)c(Cl)cc2[nH]1`, the melting point is above 280 °C.

`CN1CCC2(CC1)c1ccccc1C(C)(O)c1c(O)cccc12` (stereo unspecified): the melting point was in the range of 151 to 154 °C.

Take `O=S1(=O)N=C(NC23CC4CC(CC(C4)C2)C3)Nc2cc(Cl)sc21`: the melting point is 339 to 340 °C.

`CCCCc1ncc(/C=C(\Cc2cccs2)C(=O)O)n1Cc1ccc(O)c(C)c1` displayed a melting point of 150 to 152 °C.

`CCCCN1CC(c2ccccc2)=C(O)C1=O` registered a melting point of 137 to 139 °C.

For the molecule `COc1c(N2CCNCC2)c(F)c(N)c2c(=O)c(C(=O)O)cn(C3CC3)c12`, the melting point lay in the range of 271 to 273 °C.

`CNC(=O)C=C1CC2(CCCC2)c2ccccc21` came in with a melting point of 178 °C.

`NC(=O)N(O)Cc1ccc(N2CCC3(CC2)OCCO3)cc1` displayed a melting point of 153 to 154 °C.

In turn, `CCc1n[nH]c2cc(-c3ccc4nnn(Cc5ccc6ncccc6c5)c4n3)ccc12` registered a melting point of 211 to 213 °C.

For `Cc1noc(C)c1CC(C)(NC(=O)OC1C2CC3CC(C2)CC1C3)C(=O)NCCc1ccccc1` (stereo unspecified), the melting point fell in the range of 70 to 73 °C.

`CC12CCC3C(CC=C4CCCCC43C)C1CC(O)C2=O` (stereo unspecified): the melting point fell in the range of 168 to 172 °C.

Molecule `CC(=O)N1CCCC1CN1C(=O)C2(COc3cc4c(cc32)CCO4)c2ccccc21` (stereo unspecified) yielded a melting point of 103 to 108 °C.

Molecule `Cc1c(Cl)sn(-c2ccc(Cl)cc2)c1=O` came in with a melting point of 104 to 106 °C.

With `COc1ccc(NN=C(Cl)C(C)=O)cc1`, the melting point fell in the range of 114 to 116 °C.

As to `CCN(C)C(=O)C(C)n1cc(C)c(-c2ccccc2)n1` (stereo unspecified), the melting point was 59 to 61 °C.

`CCOC(=O)/C=C(C)/C(F)=C/C=C(C)/C=C/c1c(C)cc(OC)c(C)c1Cl` gave a melting point of 115 to 117 °C.

`CCOC(=O)CCCc1ccc(CCl)cc1` gave a melting point of 152 to 155 °C.

Molecule `CC(CC1CNc2nc(N)nc(O)c2C1)c1ccc(C(=O)N[C@@H](CCC(=O)O)C(=O)O)cc1` (stereo partly specified) gave a melting point above 250 °C.

For `COc1cc(OC)nc(NC(=O)NS(=O)(=O)c2ccccc2-c2ccccn2)n1`, the melting point is 175 to 176 °C.

For `CNC(=O)C(Cc1ccc(O)cc1)NC(=O)Nc1n[nH]c(=S)s1` (stereo unspecified), the melting point is 198 to 200 °C.

In the case of `CC(=O)N1CCN(c2c(-c3ccccc3)sc3ccccc23)CC1`, the melting point was in the range of 167 to 169 °C.

Molecule `O=C(O)c1cc2ccccc2c(Cl)c1O` returned a melting point of 234 to 235 °C.

Regarding `COC(=O)COc1cc2ccccc2c2c1c(C(=O)C(N)=O)c(C)n2CC1CCCCC1`, the melting point lay within 156 to 158 °C.

On to `N#Cc1ccc(C(=O)OCc2ccc[nH]c2=O)cc1`, for which the melting point lay in the range of 200 to 203 °C.

`c1cc(Nc2ccc(-n3cccc3)cn2)cc(-n2ccnc2)c1`: the melting point lay within 152 to 156 °C.

In the case of `COc1nc(C)nc(NC(=O)NS(=O)(=O)c2c(Cl)cccc2C(C)F)n1` (stereo unspecified), the melting point was 181 to 183 °C.

In the case of `CCCCCCNC(=O)c1ccc(N2N=C(C)C(=CNc3ccccc3CC)C2=O)cc1`, the melting point was found to be 62.1 °C.

By melting point is commonly meant the temperature, or range, at which the solid turns liquid.
